22 compounds from patent US7294639B2, “Biaromatic ligand activators of PPARγ receptors” (Galderma Research & Development, priority 2001, dated 2007) can be followed below.

For orientation: Kd means a measure of binding affinity in units of concentration. By AC50 is commonly meant the concentration giving half of the maximal activity seen. Low readings indicate greater potency, high ones weaker potency.

In one assay the target is T1, human PPARγ receptor (Homo sapiens, UniProt P37231).
T1 construct: made in house; host or cells: SF9 insect cells, recombinant baculovirus
Put plainly: Binding test by competition with tritiated reference agonist (hydroxyapatite gel). As to conditions: hPPARγ/RXRα heterodimers from SF9 insect cells. How it is done:
The affinity of the compounds of the invention for the human PPARγ receptor was determined in a test of binding, by competition for the attachment of a reference agonist, the following tritiated compound 5-{4-[2-(methylpyridin-2-ylamino)ethoxy]benzyl}thiazolidine-2,4-dione.
The receptors are obtained by infecting SF9 insect cells with a recombinant bacculovirus. They exist in the form of hPPARγ/RXRα heterodimers. The presence of RXRα increases the solubility and the stability of the hPPARγ receptor and, consequently, its biological activity, without as a result interfering in the determination of the binding constants.
The technique of adsorption on hydroxyapatite gel was used to separate the ligand bound to the receptor from the free ligand. The results are expressed as Kd value (nM) which represents the dissociation constant at equilibrium obtained for each compound.

Assay [1] concerns the target T2, chimeric Gal-PPARγ receptor (LBD) (Homo sapiens, UniProt P37231).
T2 construct: chimeric Gal-PPARγ receptor (LBD); expressed in transfected cells; host or cells: HeLa cells, stably transfected
T2 sequence (P37231 238-503 limits assumed): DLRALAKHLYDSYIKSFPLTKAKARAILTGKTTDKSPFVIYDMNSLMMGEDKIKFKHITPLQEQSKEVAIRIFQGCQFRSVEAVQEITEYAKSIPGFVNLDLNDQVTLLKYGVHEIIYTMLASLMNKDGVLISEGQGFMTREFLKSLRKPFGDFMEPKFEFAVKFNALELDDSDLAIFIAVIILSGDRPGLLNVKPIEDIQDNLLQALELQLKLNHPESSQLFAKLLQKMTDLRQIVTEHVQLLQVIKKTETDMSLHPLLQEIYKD
As to the kind of experiment: Transactivation test, PPARγ agonist activity (luciferase). It is filed as cell-based. As to conditions: concentration giving 50% activation relative to the reference agonist. How it is done:
The agonist activity towards the PPARγ receptors of the compounds according to the invention may be evaluated by transactivation tests.
The capacity of the molecules to activate and/or inhibit the PPARγ receptors is evaluated from Hela cells stably transfected with the chimeric Gal-PPARγ receptor (LBD).
96-well plates are inoculated at the rate of 10000 cells/100 μl/well in DMEM 10% SDL medium and then placed for 24 hours at 37° C., 7% CO2.
To determine the PPARγ agonist activity, the cells are then treated by addition of 5 μl/well of the molecules to be tested at the final concentration of 1 μM. Cells are also treated in parallel with a reference agonist, (−)-3-{4-[2-(benzooxazol-2-ylmethylamino)ethoxy]phenyl}-2-ethoxypropionic acid, 1 μM.
After another incubation of 24 hours at 37° C., 7% CO2, a luciferase assay is carried out with the aid of the “Steady-Glo Luciferase Assay System” kit from Promega. The luminescence is counted on a Microbeta Trilux microplate reader (Wallac).
The agonist activity of the test product will be expressed as a percentage activation relative to the control agonist, the reference agonist at 1 μM.
The AC50, expressed in nM, is determined as the concentration which makes it possible to obtain 50% activation of the basal signal relative to the reference agonist.

T1 sequence (P19793 whole entry): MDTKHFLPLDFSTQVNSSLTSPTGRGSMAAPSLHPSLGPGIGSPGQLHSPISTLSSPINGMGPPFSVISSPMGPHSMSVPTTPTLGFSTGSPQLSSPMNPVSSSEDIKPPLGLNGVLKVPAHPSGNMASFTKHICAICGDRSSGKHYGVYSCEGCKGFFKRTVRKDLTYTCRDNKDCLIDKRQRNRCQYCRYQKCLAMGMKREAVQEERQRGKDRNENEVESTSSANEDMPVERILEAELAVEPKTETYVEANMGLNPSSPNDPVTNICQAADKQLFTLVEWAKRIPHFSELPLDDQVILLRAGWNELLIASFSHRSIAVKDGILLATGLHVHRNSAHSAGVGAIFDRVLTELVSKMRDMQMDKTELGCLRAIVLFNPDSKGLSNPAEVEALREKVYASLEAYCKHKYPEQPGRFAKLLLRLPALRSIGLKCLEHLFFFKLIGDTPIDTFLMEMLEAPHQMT
T1 sequence (P37231 whole entry): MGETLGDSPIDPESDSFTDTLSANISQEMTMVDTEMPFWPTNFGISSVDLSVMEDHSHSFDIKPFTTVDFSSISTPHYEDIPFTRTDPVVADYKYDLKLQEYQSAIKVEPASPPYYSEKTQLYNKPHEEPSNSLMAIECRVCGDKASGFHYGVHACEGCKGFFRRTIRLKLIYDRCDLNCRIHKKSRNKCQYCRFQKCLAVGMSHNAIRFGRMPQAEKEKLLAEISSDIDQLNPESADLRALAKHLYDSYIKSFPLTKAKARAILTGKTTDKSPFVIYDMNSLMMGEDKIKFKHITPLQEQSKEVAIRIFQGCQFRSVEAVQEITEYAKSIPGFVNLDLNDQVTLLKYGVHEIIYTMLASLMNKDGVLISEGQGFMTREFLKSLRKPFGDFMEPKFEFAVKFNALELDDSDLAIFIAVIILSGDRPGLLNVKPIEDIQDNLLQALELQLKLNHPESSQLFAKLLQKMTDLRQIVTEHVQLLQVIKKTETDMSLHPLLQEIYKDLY

Compound `CN(Cc1cccc(-c2ccc(CC3SC(=O)NC3=O)cc2)c1)C(=O)c1cc2ccccc2s1` (centres unmarked) [Example 11, N-[4′-(2,4-dioxothiazolidin-5-ylmethyl)biphenyl-3-ylmethyl]-N-methylbenzo[b]thio-phene-2-carboxamide] came in with a Kd at human PPARγ receptor of 375 nM. Further, half-maximal activity in assay [1] (AC50) was put at 15.1 nM.

At human PPARγ receptor, `CN(Cc1cccc(-c2ccc(CC3SC(=O)NC3=O)cc2)c1)C(=O)c1ccc(C(=O)c2ccccc2)cc1` (centres unmarked) [Example 15, N-[4′-(2,4-dioxothiazolidin-5-ylmethyl)biphenyl-3-ylmethyl]-N-methyl-4-(1-phenylmethanoyl)benzamide] came in with a Kd of 60 nM. The compound also showed an AC50 in assay [1] of 5 nM.

In assay [1], `CN(C(=O)Nc1ccc2ccccc2c1)c1cccc(-c2ccc(CC3SC(=O)NC3=O)cc2)c1` (centres unmarked) [Example 21, 1-[4′-(2,4-dioxothiazolidin-5-ylmethyl)biphenyl-3-yl]-1-methyl-3-naphthalen-2-ylurea] displayed an AC50 of 22 nM.

The compound `COCCOCOc1ccc2cc(C(=O)N(C)Cc3cccc(-c4ccc(CC5SC(=O)NC5=O)cc4)c3)ccc2c1` (centres unmarked) [Example 16, 6-(2-methoxyethoxymethoxy)-N-[4′-(2,4-dioxothiazolidin-5-ylmethyl)biphenyl-3-ylmethyl]-N-methylnapthalene-2-carboxamide] displayed a Kd at human PPARγ receptor of 4 nM. Besides, in assay [1], the AC50 turned out to be 0.55 nM.

On human PPARγ receptor, `CN(Cc1cccc(-c2ccc(CC3SC(=O)NC3=O)cc2)c1)C(=O)c1ccc2cc(O)ccc2c1` (centres unmarked) [Example 17, 6-hydroxy-N-[4′-(2,4-dioxothiazolidin-5-ylmethyl)biphenyl-3-ylmethyl]-N-methylnaphthalene-2-carboxamide] gave a Kd of 15 nM. The compound also showed an AC50 in assay [1] of 3.8 nM.

The compound `CCO[C@@H](Cc1ccc(-c2cccc(CN(C)C(=O)c3ccc4cc(OCOCCOC)ccc4c3)c2)cc1)C(=O)O` [Example 23, (S)-2-ethoxy-3-{3′-[({1-[6-(2-methoxyethoxymethoxy)naphthalen-2-yl]methanoyl}methylamino)methyl]biphenyl-4-yl}propionic acid] came in with an AC50 in assay [1] of 1 nM.

Regarding `CN(Cc1cccc(-c2ccc(CC3SC(=O)NC3=O)cc2)c1)C(=O)c1cccc2ccccc12` (centres unmarked) [Example 5, N-[4′-(2,4-dioxothiazolidin-5-ylmethyl)biphenyl-3-ylmethyl]-N-methylnaphthalene-1-carboxamide], the Kd on human PPARγ receptor turned out to be 500 nM. Besides, the AC50 in assay [1] amounted to 23.3 nM.

As to `CN(Cc1cccc(-c2ccc(CC3SC(=O)NC3=O)cc2)c1)C(=O)c1ccc(-c2ccccc2)cc1` (centres unmarked) [Example 10, N-[4′-(2,4-dioxothiazolidin-5-ylmethyl)biphenyl-3-ylmethyl]-N-methylbiphenyl-4-carboxamide], at human PPARγ receptor, the Kd was found to be 60 nM. The compound further came in with an AC50 in assay [1] of 3.3 nM.

Consider `CN(Cc1cccc(-c2ccc(CC3SC(=O)NC3=O)cc2)c1)C(=O)c1cccn1C` (centres unmarked) [Example 8, N-[4′-(2,4-dioxothiazolidin-5-ylmethyl)biphenyl-3-ylmethyl]-N-methyl-1-methyl-1H-pyrrole-2-carboxamide], for which, in assay [1], the AC50 stood at 307 nM.

In turn, `COC(=O)CCCCCCCCC(=O)N(C)Cc1cccc(-c2ccc(CC3SC(=O)NC3=O)cc2)c1` (centres unmarked) [Example 2, methyl 9-{[4′-(2,4-dioxothiazolidin-5-ylmethyl)biphenyl-3-ylmethyl]methylcarbamoyl}nonanoate] had an AC50 in assay [1] of 55.5 nM.

The compound `CN(Cc1cccc(-c2ccc(CC3SC(=O)NC3=O)cc2)c1)C(=O)c1ccc2ccccc2c1` (centres unmarked) [Example 6, N-[4′-(2,4-dioxothiazolidin-5-ylmethyl)biphenyl-3-ylmethyl]-N-methylnaphthalene-2-carboxamide] had a dissociation constant Kd on human PPARγ receptor of 60 nM. The compound also came in with a half-maximal activity concentration (AC50) in assay [1] of 4 nM.

For the compound `CSc1ccc(C(=O)N(C)Cc2cccc(-c3ccc(CC4SC(=O)NC4=O)cc3)c2)cc1` (centres unmarked) [Example 18, N-[4′-(2,4-dioxothiazolidine-5-ylmethyl)biphenyl-3-ylmethyl]-N-methyl-4-methylsulphanylbenzamide], the AC50 in assay [1] was determined as 42.5 nM.

For `CCO[C@@H](Cc1ccc(-c2cccc(CN(C)C(=O)CCCCC(=O)c3ccccc3)c2)cc1)C(=O)O` [Example 20, (S)-2-ethoxy-3-(3′-{[methyl(6-oxo-6-phenylhexanoyl)amino]methyl}biphenyl-4-yl)propionic acid], the Kd at human PPARγ receptor was 9.5 nM. For the same compound, the activity in assay [1] was half-maximal at 7.7 nM (AC50).

The compound `CN(Cc1cccc(-c2ccc(CC3SC(=O)NC3=O)cc2)c1)C(=O)COc1ccccc1` (centres unmarked) [Example 7, N-[4′-(2,4-dioxothiazolidin-5-ylmethyl)biphenyl-3-ylmethyl]-N-methyl-2-phenoxyacetamide] came in with an AC50 in assay [1] of 63.8 nM.

Compound `CN(Cc1cccc(-c2ccc(CC3SC(=O)NC3=O)cc2)c1)C(=O)CCCCC(=O)c1ccccc1` (centres unmarked) [Example 12, N-[4′-(2,4-dioxothiazolidin-5-ylmethyl)biphenyl-3-ylmethyl]-N-methyl-6-oxo-6-phenylhexanamide] gave a Kd on human PPARγ receptor of 60 nM. Moreover, in assay [1], the AC50 was found to be 3.2 nM.

In assay [1], `CN(Cc1cccc(-c2ccc(CC3SC(=O)NC3=O)cc2)c1)C(=O)C12CC3CC(CC(C3)C1)C2` (centres unmarked) [Example 9, N-[4′-(2,4dioxothiazolidin-5-ylmethyl)biphenyl-3-ylmethyl]-N-methyladamantane-1-carboxamide] came in with an AC50 of 182 nM.

As to `CCO[C@@H](Cc1ccc(-c2cccc(CN(C)C(=O)c3ccc(-c4ccccc4)cc3)c2)cc1)C(=O)O` [Example 19, (S)-3-(3′-{[(1-biphenyl-4-ylmethanoyl)methylamino]methyl}biphenyl-4-yl)-2-ethoxypropionic acid], binding at human PPARγ receptor was characterised by a dissociation constant (Kd) of 8 nM. Moreover, in assay [1], half-maximal activity (AC50) was put at 2.9 nM.

At human PPARγ receptor, `CN(Cc1cccc(-c2ccc(CC3SC(=O)NC3=O)cc2)c1)C(=O)CCC1CCCC1` (centres unmarked) [Example 4, 3-cyclopentyl-N-[4′-(2,4-dioxothiazolidin-5-ylmethyl)biphenyl-3-ylmethyl]-N-methylpropionamide] displayed a Kd of 250 nM. In assay [1], this compound showed a half-maximal activity concentration (AC50) of 24.2 nM.

In the case of `COC(=O)c1ccc(C(=O)N(C)Cc2cccc(-c3ccc(CC4SC(=O)NC4=O)cc3)c2)cc1` (centres unmarked) [Example 3, methyl N-[4′-(2,4-dioxothiazolidin-5-ylmethyl)biphenyl-3-ylmethyl]-N-methylterephthalamate], binding at human PPARγ receptor was put at a Kd of 375 nM. Besides, in assay [1], half-maximal activity (AC50) was put at 13.1 nM.

On human PPARγ receptor, `CN(Cc1cccc(-c2ccc(CC3SC(=O)NC3=O)cc2)c1)C(=O)c1ccc(N(C)C)c2ccccc12` (centres unmarked) [Example 13, 4dimethylamino-N-[4′-(2,4-dioxothiazolidin-5-ylmethyl)biphenyl-3-ylmethyl]-N-methylnaphthalene-1-carboxamide] displayed a Kd of 500 nM. For the same compound, the AC50 in assay [1] came to 36.7 nM.

In assay [1], `CN(Cc1cccc(-c2ccc(CC3SC(=O)NC3=O)cc2)c1)C(=O)c1ccc(S(C)(=O)=O)cc1` (centres unmarked) [Example 14, N-[4′-(2,4-dioxothiazolidin-5-ylmethyl)biphenyl-3-ylmethyl]-4-methanesulphonyl-N-methylbenzamide] registered an AC50 of 143 nM.

Compound `CN(C)c1ccc(NC(=O)N(C)c2cccc(-c3ccc(CC4SC(=O)NC4=O)cc3)c2)cc1` (centres unmarked) [Example 22, 3-(4-dimethylaminophenyl)-1-[4′-(2,4-dioxothiazolidin-5-ylmethyl)biphenyl-3-yl]-1-methylurea] returned an AC50 in assay [1] of 4.2 nM.
